Like-named read-outs stand apart in the source and are kept apart here. Where only a bound is given, the exact number is not on record here.

The subject of one assay is B. cinerea. Put plainly: Fungicidal activity assay on PDA in sealed Petri dish (growth inhibition and mortality). The class given is cell-based, Botrytis cinerea. The following applies: for MFC: Botrytis cinerea, read-out: M - Mortality, minimal concentration that killed the fungus. On the procedure: (§1) In exemplary procedures, the fungicidial activity of the compounds listed in Table 2 were examined by activity assays as follow: Petri dishes, 90 mm in diameter, with air volume of 80 mL, contained 10-12 mL of growth medium comprising potato dextrose agar (PDA) (Acumedia, Lansing, Michigan, USA) amended with tetracycline at 12 μg/mL. Each compound was placed on a disconnected cover from an Eppendorf tube that was located in the middle of the Petri dish and a hyphae-containing plug of each test fungus was added to the culture plate. In exemplary procedures, the tested compounds trans-2-heptenal, trans-2-octenal were tested in comparison with octanal, trans-2-octen-1-ol, methyl trans-2-octenoate, trans-3-octen-2-one and 3-pentenenitrile. In addition, cyclic ketones as 2-cyclopenten-1-one, 2-cyclohexen-1-one and α-tetralone were also examined. Then, the culture plate was sealed with parafilm and incubated at room-temperature for 2 days, after which the growth of the test fungi in those dishes was compared with those in the test compound-free control dishes. At the end of the assay, the viability of each test fungus was evaluated by transferring inoculum plugs to fresh PDA plates and observing the growth that developed within the next 2 days. The test fungi used in this study included but were not limited to Alternaria alternata, Botrytis cinerea, Sclerotinia rolfsii, Penicillium digitatum, Fusarium oxysporum f. sp. radicis-cucumerinum and Rhizoctonia solani.

The subject of assay [1] is F. oxysporum f. sp. radicis-cucumerium. Described as above. The class given is cell-based, Fusarium oxysporum f. sp. radicis-cucumerinum. The following applies: for MFC: Fusarium oxysporum, read-out: M - Mortality, minimal concentration that killed the fungus. On the procedure: as §1, with “Each” for “In exemplary procedures, the fungicidial activity of the compounds listed in Table 2 were examined by activity assays as follow: Petri dishes, 90 mm in diameter, with air volume of 80 mL, contained 10-12 mL of growth medium comprising potato dextrose agar (PDA) (Acumedia, Lansing, Michigan, USA) amended with tetracycline at 12 μg/mL. Each”

Another assay deals with A. alternata. The assay is described as above. The following applies: for MFC: Alternaria alternata, read-out: M - Mortality, minimal concentration that killed the fungus. The class given is cell-based, Alternaria alternata. On the procedure: as §1
In the next assay the test system is R. solani. Put plainly: microbe, parasite or virus in culture. The assay is classed as cell-based. The following applies: R. solani; for MFC: Rhizoctonia solani, read-out: M - Mortality, minimal concentration that killed the fungus. On the procedure: as §1, with “Each” for “In exemplary procedures, the fungicidial activity of the compounds listed in Table 2 were examined by activity assays as follow: Petri dishes, 90 mm in diameter, with air volume of 80 mL, contained 10-12 mL of growth medium comprising potato dextrose agar (PDA) (Acumedia, Lansing, Michigan, USA) amended with tetracycline at 12 μg/mL. Each”

The subject of the next assay is S. rolfsii. Kind of assay: Fungicidal activity assay on PDA in sealed Petri dish (growth inhibition and mortality). The following applies: for MFC: Agroathelia rolfsii, read-out: M - Mortality, minimal concentration that killed the fungus; for I - Inhibition class: 2 days; for I - Inhibition, minimal concentration that inhibited the growth: concentration to which the class above belongs. The class given is cell-based, Sclerotinia rolfsii. On the procedure: as §1, with “Each” for “In exemplary procedures, the fungicidial activity of the compounds listed in Table 2 were examined by activity assays as follow: Petri dishes, 90 mm in diameter, with air volume of 80 mL, contained 10-12 mL of growth medium comprising potato dextrose agar (PDA) (Acumedia, Lansing, Michigan, USA) amended with tetracycline at 12 μg/mL. Each”

The subject of the next assay is test fungi. Kind of assay: Fungicidal activity assay on PDA, summaries over the test fungi. The following applies: for fungicidal activity in words: comparison within the series. The class given is cell-based. As for the experimental part: as §1
The test system of a further assay is P. digitatum. Kind of assay: Fungicidal activity assay on PDA in sealed Petri dish (growth inhibition and mortality). The assay is classed as cell-based, Penicillium digitatum. The following applies: for MFC: Penicillium digitatum, read-out: M - Mortality, minimal concentration that killed the fungus. As for the experimental part:
as §1

The test system of assay [2] is Meloidogyne javanica second stage juveniles (J2s). Kind of assay: Nematocidal activity: viability of J2 nematodes after 2 days exposure to the compound in a sealed box. The class given is in vivo. The following applies: concentration to which the class of the same cell belongs. The text has this:
In exemplary procedures, the sedentary root-knot nematode from the genus Meloidogyne javanica second stage juveniles (J2s) was propagated on greenhouse-grown nematode-susceptible tomato Lycopersicon esculentum cv. ‘Avigail 870’ (Hazera, Shikmim, Israel), and nematode eggs were bulk-extracted from the roots with 0.05% (v/v) sodium hypochlorite (NaOCl) followed by sucrose flotation and successive sievings through nylon filters of 300, 120, 60, and 30 μm mesh sizes (AD Sinun Technologies, Petach Tikvah, Israel). For hatching J2, extracted eggs were placed on 30-μm sieves (AD Sinun Technologies) in 0.01 M MES (2-(N-morpholino) ethanesulfonic acid hydrate) pH 6.5 buffer under aseptic conditions in darkness for 5 days, and hatching J2s were collected for further experiments.
Seven vials, each containing 300 J2 nematodes with 0.5 mL of 0.01 M 2-(N-morpholino)ethanesulfonic acid (MES) buffer, were exposed to cyclic ketone compounds in order to examine their nematocidal activity and reduction in viability. In addition, a humid environment in a sealed 1 L box was maintained by addition 5 ml of distilled H2O to a 50-mm Petri plate. The box was sealed after compound addition into each 50-mm Petri plate together with 5-250 mg of perlite particles and incubated for 2 days in the dark at 25±1° C. C5 and C6 saturated and α,β-unsaturated cyclic ketones were tested for their nematocidal activity. The J2 nematodes viability was examined following exposure to the cyclic ketone compounds, by a straightforward small-scale nematode extraction method, based on the traditional Baermann funnel method. Briefly, all nematode suspensions were loaded onto 30-μm (AD Sinun Technologies) filters (1.0-1.5 cm height, 1.1-2.0 cm^3 internal area), and the nematodes were washed twice with 300 μL of 0.01 M MES buffer in order to remove any residues. Then, filters holding nematodes were placed into 15 mL Falcon centrifuge tubes, each containing 900 μL of 0.01 M of MES buffer. These filters allow active passage of only living J2s while paralyzed or dead nematodes remain on top of the filter. The whole apparatus including the filter holding the nematodes and the Falcon tubes were placed in the dark for 3 h at 25±1° C. Then, the filters were removed and the viable nematodes, which were able to actively cross the filter toward the 0.01 M of MES buffer, were collected from the Falcon tube and counted using a Nematode Counting Slide (Chalex LLC, Portland, OR, USA) and a SV11 stereomicroscope (Zeiss, Jena, Germany).
Data were analyzed by the JMP 12 software package (SAS Inc., Cary, NC, USA). Mean numbers of viable J2s under various conditions were subjected to one-way analysis of variance (ANOVA), followed by the Tukey-Kramer multiple comparison test, with significance set at P<0.05.

[3] abbreviates: NA + number = still viable in the highest concentration tested (given as >).
Setting [4] is: S. rolfsii, NA + number = still viable in the highest concentration tested (given as >).
Where [5] appears, read: concentration to which the class above belongs.

With `CCCC/C=C/C=O` [trans-2-heptenal], the MFC in the assay with B. cinerea (setting [3]) is 125 µg/mL; in assay [1] (setting [3]), 12.5 µg/mL; in the assay with A. alternata (setting [3]) it was 12.5 µg/mL; in the assay on R. solani (setting [3]), 12.5 µg/mL; in the assay with S. rolfsii (setting [4]) it was 6.25 µg/mL; in the assay with P. digitatum (setting [3]), 12.5 µg/mL. Besides, the “concentration that completely inhibited the fungi growth” value with test fungi (dependent on the fungus tested) is listed as 6.25-25 ppm. Moreover, the “concentrations at which fungi were not viable” value in the assay with test fungi (dependent on the fungus tested) is recorded as 6.25-125 ppm.
On to `CC=CCC#N` [3-pentenenitrile], for which the MFC (in assay [1] (setting [3]); in the assay on R. solani (setting [3]); in the assay on S. rolfsii (setting [4])) was over 25 µg/mL in each case.
`CCCCCCCCCC=O` [Decanal]: the MFC (in assay [1] (setting [3]); with R. solani (setting [3]); in the assay with S. rolfsii (setting [4])) was over 25 µg/mL throughout.
Regarding `CC/C=C/C=O` [trans-2-pentenal], the MFC (in the assay on B. cinerea (setting [3]); in assay [1] (setting [3]); with A. alternata (setting [3]); in the assay with R. solani (setting [3]); with S. rolfsii (setting [4]); with P. digitatum (setting [3])) was 25 µg/mL throughout.
With `CCCCCCCCC=O` [Nonanal], the MFC is over 25 µg/mL in assay [1] (setting [3]), over 25 µg/mL in the assay with R. solani (setting [3]) and 25 µg/mL with S. rolfsii (setting [4]).
In the case of `CCCCCC/C=C/C=O` [trans-2-nonenal], the MFC was 6.25 µg/mL in assay [1] (setting [3]), over 25 µg/mL with R. solani (setting [3]) and over 25 µg/mL in the assay with S. rolfsii (setting [4]).
As for `O=C/C=C/c1ccccc1` [trans-cinnamaldehyde], the MFC with S. rolfsii (setting [4]) was over 1250 µg/mL.
Take `CCCCCCCCCCCC=O` [Lauric aldehyde]: the “I - Inhibition class” value (in assay [1] (2 days); with R. solani (2 days); in the assay with S. rolfsii (S. rolfsii)) was “NI (<50% growth inhibition)” throughout. The “M - Mortality, minimal concentration that killed the fungus” value (in assay [1] (setting [3]); with R. solani (setting [3]); with S. rolfsii (setting [4])) was over 25 ppm throughout. The “I - Inhibition, minimal concentration that inhibited the growth” value (in assay [1] (setting [5]); with R. solani (setting [5]); in the assay on S. rolfsii (S. rolfsii)) was 25 ppm throughout. The “fungicidal activity in words” value with test fungi is listed as “lower activity”.
Regarding `CCC/C=C/C=O` [trans-2-hexen-1-al], the MFC in assay [1] (setting [3]) came out at 25 µg/mL; in the assay on R. solani (setting [3]), 12.5 µg/mL; in the assay on S. rolfsii (setting [4]), 12.5 µg/mL.
With `CCCC/C=C/C(C)=O` [trans-3-octen-2-one], the MFC in the assay on B. cinerea (setting [3]), with A. alternata (setting [3]), in the assay on S. rolfsii (setting [4]) and in the assay with P. digitatum (setting [3]) was 50 µg/mL in each case. Besides, the “concentration that completely inhibited the fungi growth” value in the assay with test fungi (dependent on the fungus tested) amounted to 50 ppm.
As for `CC(C)=CCCC(C)=CC=O` [Citral], the MFC was 25 µg/mL in the assay with B. cinerea (setting [3]), 25 µg/mL in the assay on A. alternata (setting [3]), 25 µg/mL in the assay with S. rolfsii (setting [4]) and over 125 µg/mL with P. digitatum (setting [3]).
On to `CCCCC/C=C/C(=O)O` [trans-2-octenoic acid], for which the MFC with B. cinerea (setting [3]), with A. alternata (setting [3]), with S. rolfsii (setting [4]) and with P. digitatum (setting [3]) was over 125 µg/mL each time.
As to R-(−)-Carvone, in assay [2], the “Activity: the most effective concentration” value is on record as 250 ppm. In addition, the “I - Inhibition class” value in the assay on B. cinerea (2 days) was “MI (Medium inhibition - 76-99% of growth inhibition)”; with A. alternata (2 days), “SI (Strong inhibition - 100% of growth inhibition compared to control.)”; with S. rolfsii (S. rolfsii), “MI (Medium inhibition - 76-99% of growth inhibition)”; in the assay with P. digitatum (2 days) it was “MI (Medium inhibition - 76-99% of growth inhibition)”. Also, the “M - Mortality, minimal concentration that killed the fungus” value in the assay on B. cinerea (setting [3]), in the assay on A. alternata (setting [3]), with S. rolfsii (setting [4]) and in the assay with P. digitatum (setting [3]) was over 1250 ppm throughout. The “I - Inhibition, minimal concentration that inhibited the growth” value with B. cinerea (setting [5]) worked out at 25 ppm; in the assay on A. alternata (setting [5]) it was 125 ppm; with S. rolfsii (S. rolfsii), 125 ppm; with P. digitatum (setting [5]), 625 ppm.
In the case of `CCCCC/C=C/CO` [trans-2-octen-1-ol], the MFC in the assay with B. cinerea (setting [3]) worked out at 500 µg/mL; with A. alternata (setting [3]), 125 µg/mL; with S. rolfsii (setting [4]), 80 µg/mL; with P. digitatum (setting [3]), 50 µg/mL. Further, in the assay on test fungi (dependent on the fungus tested), the “concentration that completely inhibited the fungi growth” value came out at 50 ppm.
`CCCC(=O)CCC` [4-heptanone]: the MFC with B. cinerea (setting [3]) is 1250 µg/mL; with A. alternata (setting [3]) it was 2500 µg/mL; in the assay with S. rolfsii (setting [4]) it was 2500 µg/mL; in the assay on P. digitatum (setting [3]), over 2500 µg/mL.
For the compound `CC(C)=CCCC(C)=CCCC(C)=CCO` [Farnesol], the MFC in the assay with B. cinerea (setting [3]), in the assay with A. alternata (setting [3]), in the assay on S. rolfsii (setting [4]) and with P. digitatum (setting [3]) was over 1250 µg/mL each time.
`CCCCC/C=C/C(=O)OC` [Methyl trans-2-octenoate]: the MFC with B. cinerea (setting [3]), with A. alternata (setting [3]), in the assay with S. rolfsii (setting [4]) and with P. digitatum (setting [3]) was 125 µg/mL each time. Also, the “concentration that completely inhibited the fungi growth” value with test fungi (dependent on the fungus tested) was 125 ppm.
With `CCOC(=O)C=Cc1ccccc1` [Ethyl cinnamate], the MFC in the assay with B. cinerea (setting [3]), in the assay on A. alternata (setting [3]), in the assay with S. rolfsii (setting [4]) and in the assay with P. digitatum (setting [3]) was over 1250 µg/mL each time.
As for `CCCCCCC/C=C/C=O` [trans-2-decenal], the “fungicidal activity in words” value with test fungi is reported as “lower activity”.
Take `CC(C)CC(=O)CC(C)C` [2,6-dimethyl-4-heptanone]: the MFC in the assay on B. cinerea (setting [3]) was over 2500 µg/mL; in the assay with A. alternata (setting [3]), over 2500 µg/mL; with S. rolfsii (setting [4]), 2500 µg/mL; with P. digitatum (setting [3]), over 2500 µg/mL.
As to `COc1ccc(C=O)cc1` [p-Anisaldehyde], the MFC in the assay with S. rolfsii is over 1250 µg/mL.
On to `CCCCCCCC=O` [Octanal], for which the MFC in assay [1] (setting [3]) was over 25 µg/mL; in the assay with R. solani (setting [3]), 12.5 µg/mL; in the assay with S. rolfsii (setting [4]), over 25 µg/mL. For the same compound, in the assay on test fungi, the “fungicidal activity in words” value is on record as “less fungicidal efficiency”.
